From PMC7763995 (Molecules, 2020)
Like-named read-outs stand apart in the source and are kept apart here.

Experiments:
[1] = ABTS radical cation scavenging activity assay; settings: for IC50 / ABTS^•+-Scavenging Activity, TEAC: 1 h incubation; for ABTS^•+-Scavenging Activity, TEAC: ratio of slopes test compound/Trolox
Method: Radical scavenging activity of the compounds was assessed using the ABTS radical decolorization assay with some modifications. ABTS was purchased from Tokyo Chemical Industry Co., Ltd. (Tokyo, Japan), potassium persulfate (dipotassium peroxodisulfate), Trolox (6-hydroxy-2,5,7,8-tetramethychroman-2-carboxylic acid), and HPLC-grade ethanol were obtained from Sigma-Aldrich. Aqueous solutions were prepared using deionized water.
The solution of cation radical ABTS^•+ was produced by incubation of ABTS with potassium persulfate in deionized water for 12–16 h at room temperature in the dark. Radical scavenging capacity of the compounds was analyzed by mixing 10 μL of compound with 240 μL of ABTS^•+ working solution in ethanol (100 μM final concentration). The reaction was monitored for an hour with an interval of 5–10 min. Data are given for 1 h of incubation of compounds with ABTS^•+. The reduction in absorbance was measured spectrophotometrically at 734 nm using a xMark microplate UV/VIS microplate spectrophotometer (Bio-Rad, Hercules, CA, USA).
Ethanol blanks were run in each assay. Values were obtained from three replicates of each sample and three independent experiments. Standard antioxidants Trolox and BHT were used as reference compounds.
Antioxidant capacity as Trolox equivalent (TEAC) values was determined as the ratio between the slopes obtained from the linear correlation of the ABTS radical absorbance with the concentrations of tested compounds and Trolox. […] The compounds were tested in the concentration range of 0.1–100 µM.

[2] = FRAP (ferric reducing antioxidant power) assay; settings: 20 µM, 1 h incubation; ratio of concentrations of Trolox and test compound with same effect
Method: The FRAP (ferric reducing antioxidant power) assay proposed by Benzie and Strain [80, 81] was modified to be performed in 96-well microplates. The FRAP reagent contained 2.5 mL of 10 mM TPTZ (2,4,6-tris(2-pyridyl)-s-triazine (Sigma-Aldrich) solution in 40 mM HCl, 2.5 mL of 20 mM FeCl3 (Sigma-Aldrich) in distilled water and 25 mL of 0.3 M acetate buffer (pH 3.6). In 96-well microplates, 10 µL aliquots of the substance under investigation (compounds 7, 8 or reference substance) dissolved in DMSO (0.5 mM) were placed in quadruplicate. The FRAP reagent (240 µL) freshly prepared and warmed to 37°C was added to three of these samples, while the same volume of acetate buffer was added to the fourth one (blank). Consequently, the concentration of the substance in a plate was 20 µM. The absorbance at 600 nm was monitored spectrophotometrically with a FLUOStar OPTIMA microplate reader at 37°C for an hour with an interval of 5–10 min. Data in Table 2 are given for 1 h of incubation of compounds with FRAP reagent. The absorbances of the blanks and those of the mixture of 240 µL FRAP reagent plus 10 µL DMSO were subtracted from the absorbances of the samples at each time interval to calculate the absorbance change. Standard antioxidants Trolox and BHT dissolved in DMSO and analyzed as described above were used as reference compounds. A calibration curve with linear formula y = 0.03x (R^2 = 0.998, p < 0.0001) was obtained for Trolox solution in DMSO in the range 2.5–100 µM and the results were expressed as FRAP units (the values calculated as the ratio of the concentrations of Trolox and the test compound resulting in the same effect.)

mouse brain homogenate [3] = test: Luminol chemiluminescence assay in mouse brain homogenate (TBHP-initiated); settings: compound concentration 20 µM; mice brain homogenate
Method: (§1) The work was carried out in accordance with the EU Directive 2010/63/EU. Hybrid BDF1 mice (about 6 months old) were sacrificed by decapitation. Each brain was rapidly excised, frozen in liquid nitrogen, and stored at −80°C until use. The brains were thawed and homogenized using a Wisd WiseTis HG-15D homogenizer for 2 min in a buffer (0.01 M PBS, pH 7.4 or 0.1 M Tris-HCl, pH 7.4). Protein concentrations were determined by the Lowry method.
Luminol-dependent chemiluminescence produced by mouse brain homogenates was measured using a 1250 Luminometer (LKB Wallac, Turku, Finland) according to the assay by Di Meo et al. with minor modifications. The reaction mixture consisted of mouse brain homogenate (protein concentration 0.1 mg/mL) in 0.1 M Tris-HCl (Sigma-Aldrich), pH 7.4, luminol (Sigma-Aldrich) (0.05 mM), TBHP (Sigma-Aldrich) (0.073 M) and tested compounds at a concentration of 20 μM. This was placed in a light-proof luminometer chamber and the background reading was recorded. All measurements were carried out at 37°C. The gain control was set to give a reading of 10 mV using a built-in standard. The free radical content in mouse brain homogenate was evaluated by the change in the light sum (the area under the kinetic curve of luminescence intensity for the entire luminescence time). All compounds were examined at least in triplicate. The effects of tested compounds were measured as the percentage decrease in the light sum relative to the control (a sample with no compound added).

mouse brain homogenate [4] = test: TBARS assay, spontaneous lipid peroxidation in mouse brain homogenate; settings: read-out: Inhibition of Spontaneous Lipid Peroxidation in Mice Brain Homogenate, TBARS Assay, IC50
Method: as §1
The procedure was performed in accordance with the method of Ohkawa et al. with minor modifications. Briefly, mouse brain homogenate (protein concentration 1 mg/mL) in PBS (0.1 M, pH 7.4) was incubated for 30 min at 37°C with tested conjugates, and the reaction was terminated by addition of 0.4 mL of 17% (w/v) trichloroacetic acid (Sigma-Aldrich). Following centrifugation for 20 min at 1300× g, 0.5 mL of 0.8% (w/v) of TBA (Sigma-Aldrich) was added to 1 mL of supernatant, heated for 30 min at 95°C and then cooled to RT. The optical density of the TBARS, which corresponds to the produced MDA, was measured at 532 nm against a blank using an Agilent Cary 60 UV-Vis spectrophotometer (Agilent, Santa Clara, CA, USA). The MDA concentration was calculated using an extinction coefficient of 1.56 × 10^5 M^−1cm^−1. Trolox and BHT were used as reference antioxidants. Compounds were dissolved in DMSO (Sigma-Aldrich) and tested in a concentration range 0.01–100 μM. All compounds were examined at least in triplicate.

Porcine liver CES = test: In vitro CES inhibition, 4-NPA substrate; type: biochemical; settings: compound concentration 20 µM; n.a. = not active
Method: (§2) Measurements were performed with a FLUOStar Optima microplate reader (BMG Labtech, Ortenberg, Germany). Compounds were dissolved in DMSO, the incubation mixture contained 2% solvent.

Equine serum BChE = biological target: T1, Equine serum BChE (Equus caballus, UniProt P81908); test: biochemical; settings: for Selectivity for BChE: IC50 AChE / IC50 BChE
T1 construct: equine serum BChE; purchased Sigma-Aldrich; host or cells: equine serum
Method: as §2

Human erythrocyte AChE = biological target: T2, Human erythrocyte AChE (Homo sapiens, UniProt P22303); test: biochemical
T2 construct: AChE from human erythrocytes was used; purchased Sigma-Aldrich; host or cells: human erythrocytes
Method: as §2

EeAChE PAS = biological target: T3, EeAChE PAS (Electrophorus electricus, UniProt O42275); type: binding; settings: compound concentration 20 µM
T3 construct: Electric eel AChE (EeAChE, type VI-S, lyophilized powder); purchased Sigma-Aldrich type VI-S; host or cells: electric eel
Method: Electric eel AChE (EeAChE, type VI-S, lyophilized powder, Sigma-Aldrich, Saint Louis, MO, USA) was used owing to its high degree of purification, high activity, and lower cost compared to human AChE.
The blank contained propidium iodide of the same concentration in 1 mM Tris-HCl buffer pH 8.0. The measurements were carried out in triplicate on a FLUOStar Optima microplate reader, and the results were calculated by formula (1):% Displacement = 100 − (IFAChE+ Propidium + inhibitor / IFAChE + Propidium) × 100(1) where IFAChE + Propidium is the fluorescence intensity of the propidium associated with AChE in the absence of the test compound (taken as 100%), and IFAChE + Propidium + inhibitor is the fluorescence intensity of the propidium associated with AChE in the presence of the test compound.

AChE = system: AChE; parameters: method as in PMID 15658850; settings: read-out: anti-AChE activity, IC50; cited from earlier work
[5] = system: AChE-induced Aβ aggregation; parameters: method as in PMID 15658850; settings: cited from earlier work
[6] = mean ± SEM, n = 3, n.a. = not active, read-out: Equine Serum BChE, IC50
[7] = mean ± SEM, n = 3, n.a. = not active, read-out: Human Erythrocyte AChE, IC50

T3 sequence (O42275 24-633): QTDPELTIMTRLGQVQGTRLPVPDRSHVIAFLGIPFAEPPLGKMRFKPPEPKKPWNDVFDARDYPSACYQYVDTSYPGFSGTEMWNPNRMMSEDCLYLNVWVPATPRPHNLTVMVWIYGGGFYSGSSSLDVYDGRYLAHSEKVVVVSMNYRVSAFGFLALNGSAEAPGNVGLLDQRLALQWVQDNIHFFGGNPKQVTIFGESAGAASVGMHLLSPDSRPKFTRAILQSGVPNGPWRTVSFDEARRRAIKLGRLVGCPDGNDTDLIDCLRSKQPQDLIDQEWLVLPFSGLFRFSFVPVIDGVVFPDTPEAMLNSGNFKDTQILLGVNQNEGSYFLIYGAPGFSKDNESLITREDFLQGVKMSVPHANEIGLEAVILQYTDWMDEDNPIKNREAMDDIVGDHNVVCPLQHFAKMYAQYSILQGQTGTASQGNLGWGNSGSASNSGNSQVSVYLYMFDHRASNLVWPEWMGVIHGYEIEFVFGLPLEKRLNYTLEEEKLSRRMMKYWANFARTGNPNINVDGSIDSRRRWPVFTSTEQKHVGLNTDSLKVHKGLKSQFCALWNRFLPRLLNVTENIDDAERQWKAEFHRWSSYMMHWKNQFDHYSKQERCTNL
T2 sequence (P22303 32-617 isoform P22303-2 limits assumed): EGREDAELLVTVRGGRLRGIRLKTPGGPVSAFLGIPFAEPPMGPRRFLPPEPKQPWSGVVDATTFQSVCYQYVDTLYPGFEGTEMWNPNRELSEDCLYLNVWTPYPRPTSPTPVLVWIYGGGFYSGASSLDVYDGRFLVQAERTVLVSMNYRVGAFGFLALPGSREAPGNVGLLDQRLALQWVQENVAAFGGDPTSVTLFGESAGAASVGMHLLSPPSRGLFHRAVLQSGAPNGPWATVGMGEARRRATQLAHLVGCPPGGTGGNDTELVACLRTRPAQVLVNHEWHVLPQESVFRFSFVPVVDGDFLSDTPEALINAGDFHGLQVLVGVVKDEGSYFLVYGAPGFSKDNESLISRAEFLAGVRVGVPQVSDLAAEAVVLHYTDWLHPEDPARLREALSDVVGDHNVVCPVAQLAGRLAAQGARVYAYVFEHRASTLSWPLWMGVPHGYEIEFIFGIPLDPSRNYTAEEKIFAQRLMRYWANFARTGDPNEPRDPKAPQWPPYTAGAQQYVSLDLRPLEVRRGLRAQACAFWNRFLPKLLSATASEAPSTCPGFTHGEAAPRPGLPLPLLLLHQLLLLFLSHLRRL
T1 sequence (P81908 whole entry): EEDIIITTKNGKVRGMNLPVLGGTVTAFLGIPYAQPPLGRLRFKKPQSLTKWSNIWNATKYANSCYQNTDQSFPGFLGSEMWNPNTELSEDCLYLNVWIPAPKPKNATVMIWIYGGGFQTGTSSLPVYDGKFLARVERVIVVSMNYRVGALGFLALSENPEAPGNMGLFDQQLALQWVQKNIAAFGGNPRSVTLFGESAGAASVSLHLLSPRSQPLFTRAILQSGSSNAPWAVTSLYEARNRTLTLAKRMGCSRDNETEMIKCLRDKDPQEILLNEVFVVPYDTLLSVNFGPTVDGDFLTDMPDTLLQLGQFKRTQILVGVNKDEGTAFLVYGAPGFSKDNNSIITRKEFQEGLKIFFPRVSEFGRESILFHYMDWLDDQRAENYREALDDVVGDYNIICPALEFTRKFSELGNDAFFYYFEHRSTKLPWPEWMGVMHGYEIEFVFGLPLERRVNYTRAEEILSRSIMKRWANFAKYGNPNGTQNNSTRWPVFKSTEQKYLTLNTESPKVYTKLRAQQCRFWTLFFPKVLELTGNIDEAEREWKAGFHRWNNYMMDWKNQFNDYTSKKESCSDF

Row | Compound | IC50 [1] | ABTS^•+-Scavenging Activity, TEAC [1] | Ferric Reducing Antioxidant Power, FRAP Units [2] | Radical Scavenging Capacity in Luminol Chemiluminescence Assay, Luminescence Inhibition, % (mouse brain homogenate [3]) | IC50 (mouse brain homogenate [4]) | Porcine Liver CES, (%) inhibition (Porcine liver CES) | Selectivity for BChE (Equine serum BChE) | IC50 (Equine serum BChE; [6]) | IC50 (Human erythrocyte AChE; [7]) | Displacement of Propidium from EeAChE PAS (%) (EeAChE PAS) | IC50 (Equine serum BChE) | IC50 (Human erythrocyte AChE) | Time of maximum binding of the ABTS radical [1] | IC50 (AChE) | IC50 [5]
1 | Cc1cc(C(C)(C)C)c(O)c(C(C)(C)C)c1 [BHT, butylated hydroxytoluene, reference compound] | 22.4 ± 1.4 µM | 0.98 ± 0.03 | 1.76 ± 0.07 | 72.0 ± 2.6% | 6.89 ± 0.26 µM | – | – | – | – | – | – | – | – | – | –
2 | O=[N+]([O-])c1ccc(OP(=O)(O)Oc2ccc([N+](=O)[O-])cc2)cc1 [BNPP, bis-4-nitrophenyl phosphate, reference compound] | – | – | – | – | – | 92.1 ± 1.8 ^3% | – | – | – | – | – | – | – | – | –
3 | CC(C)(C)c1cc(C=NCCNc2c3c(nc4ccccc24)CCC3)cc(C(C)(C)C)c1O [Compound 7a, 2,6-Di-tert-butyl-4-{[2-(2,3-dihydro-1H-cyclopenta[b]quinolin-9-ylamino)-ethylimino]-methyl}-phenol] | 22.3 ± 1.5 µM | – | 0.51 ± 0.03 | 94.0 ± 0.2% | 19.6 ± 0.8 µM | 26.1 ± 0.7% | 2.5 | 1.92 ± 0.11 µM | 4.86 ± 0.01 µM | 18.1 ± 1.6% | – | – | – | – | –
4 | CC(C)(C)c1cc(C=NCCNc2c3c(nc4ccccc24)CCCC3)cc(C(C)(C)C)c1O [Compound 7b, 2,6-Di-tert-butyl-4-{[2-(1,2,3,4-tetrahydro-acridin-9-ylamino)-ethylimino]-methyl}-phenol] | 17.1 ± 1.4 µM | 1.13 ± 0.05 | 0.58 ± 0.03 | 95.0 ± 0.2% | 7.21 ± 0.62 µM | 28.6 ± 1.6% | 3.7 | 1.61 ± 0.04 µM | 5.98 ± 0.13 µM | 18.2 ± 1.6% | – | – | – | – | –
5 | CC(C)(C)c1cc(C=NCCNc2c3c(nc4ccccc24)CCCCCC3)cc(C(C)(C)C)c1O [Compound 7d, 2,6-Di-tert-butyl-4-{[2-(6,7,8,9,10,11-hexahydro-cycloocta[b]quinolin-12-ylamino)-ethylimino]-methyl}-phenol] | 17.8 ± 1.7 µM | 1.12 ± 0.05 | 0.57 ± 0.02 | 95.0 ± 0.2% | 14.8 ± 1.3 µM | 20.4 ± 1.6% | 10.5 | 4.27 ± 0.26 µM | 45 ± 5.7 µM | 17.1 ± 1.8% | – | – | – | – | –
6 | CC(C)(C)c1cc(CNCCNc2c3c(nc4ccccc24)CCC3)cc(C(C)(C)C)c1O [Compound 8a, 2,6-Di-tert-butyl-4-{[2-(2,3-dihydro-1H-cyclopenta[b]quinolin-9-ylamino)-ethylamino]-methyl}-phenol] | 12.7 ± 1.1 µM | 1.39 ± 0.05 | 0.77 ± 0.02 | 95.0 ± 0.1% | 6.23 ± 0.33 µM | 19.6 ± 1.3% | 5.4 | – | – | 16.4 ± 1.4% | 0.652 ± 0.005 µM | 3.5 ± 0.33 µM | 5 min | – | –
7 | CC(C)(C)c1cc(CNCCNc2c3c(nc4ccccc24)CCCCC3)cc(C(C)(C)C)c1O [Compound 8c, 2,6-Di-tert-butyl-4-{[2-(7,8,9,10-tetrahydro-6H-cyclohepta[b]quinolin-11-ylamino)-ethylamino]-methyl}-phenol] | 14.1 ± 0.8 µM | 1.35 ± 0.04 | 0.80 ± 0.06 | 91.0 ± 0.6% | 9.38 ± 0.12 µM | 26.0 ± 1.9% | – | – | – | 13.6 ± 1.2% | 0.084 ± 0.008 µM | 1.9 ± 0.16 µM | 5 min | – | –
8 | Cc1c(C)c2c(c(C)c1O)CCC(C)(C(=O)O)O2 (stereo not drawn) [Trolox, 6-hydroxy-2,5,7,8-tetramethychroman-2-carboxylic acid, reference compound] | 20.1 ± 1.2 µM | 1.0 | 1.0 | 88.0 ± 1.0% | 91.8 ± 0.3 µM | – | – | – | – | – | – | – | – | – | –
9 | O=C(CCCCC1CCSS1)NCCCNc1c2c(nc3cc(Cl)ccc13)CCCC2 (stereo not drawn) [lipocrine] | – | – | – | – | – | – | – | – | – | – | – | – | – | 0.000253 µM | 45 µM
